Here are results for 9 compounds from DBAASP.

Some test systems named below: Staphylococcus aureus; Streptococcus mutans; Micrococcus luteus; Bacillus subtilis; Pseudomonas aeruginosa; Escherichia coli; Escherichia coli D21; Bacillus megaterium Bm11.
Holding throughout (test): ≥ marks a high value that may be exact or a test limit, other limits are often not marked, values filed in µg/mL are converted to µM
Assay [1] deals with Batrachochytrium dendrobatidis.
The subject of assay [2] is Staphylococcus aureus ATCC 29213.
For assay [3], the system named is Burkholderia thailandensis.
Assay [4] concerns Bacillus subtilis ATCC 9372.
In assay [5] the test system is Bacillus anthracis Sterne 34F2.
The subject of assay [6] is Candida albicans ATCC 10231.
Assay [7] concerns Klebsiella pneumoniae ATCC 13883.
The subject of assay [8] is Escherichia coli ATCC 25922.
Assay [9] deals with Bacillus subtilis ATCC 6633.
Assay [10] deals with Staphylococcus aureus ATCC 25923.
Assay [11] deals with Candida albicans ATCC 20032.
Assay [12] deals with Lacticaseibacillus casei ATCC 4646.
Assay [13] has as its system Veillonella atypica PK1910.
The subject of assay [14] is Streptococcus sanguinis NY101.
The test system of assay [15] is Pseudomonas aeruginosa PAK.
The test system of assay [16] is Streptococcus gordonii Challis DL1.
The subject of assay [17] is Streptococcus mitis ATCC 903.
The subject of assay [18] is Streptococcus mutans UA159.
Assay [19] relates to Bacillus subtilis AB91021.
Assay [20] relates to Micrococcus luteus AB93113.
Assay [21] has as its system Legionella pneumophila Lens.
Assay [22] has as its system Staphylococcus aureus Cowan 1.
Assay [23] deals with Staphylococcus aureus JC-1.
Assay [24] has as its system Proteus vulgaris OX19 ATCC 6380.
Assay [25] concerns Shigella flexneri ATCC 203.
Assay [26] concerns Pseudomonas aeruginosa OT97.
The subject of assay [27] is Escherichia coli ATCC 25726.
For assay [28], the system named is Candida albicans NCYC 1467.
In assay [29] the test system is Staphylococcus aureus NCTC 10788.

≈ marks a conversion by molar mass, not a printed value. Where “and” joins values, the source holds several entries; their conditions need not be identical. Equal entries are not always repeated.

A word on the MIC: it is the lowest concentration that inhibits growth of the organism. A lower MIC goes with a more susceptible organism. Take `CC[C@H](C)[C@H](NC(=O)[C@H](C)NC(=O)[C@H](CO)NC(=O)[C@@H](NC(=O)[C@@H](N)Cc1ccccc1)[C@@H](C)CC)C(=O)N[C@@H](C)C(=O)N[C@@H](CO)C(=O)N[C@@H](CCSC)C(=O)N[C@@H](CC(C)C)C(=O)NCC(=O)N[C@@H](CCCCN)C(=O)N[C@@H](Cc1ccccc1)C(=O)N[C@@H](CC(C)C)C(N)=O` [FISAIASMLGKFL]: the MIC against Staphylococcus aureus was 100 µM (≈ 140 µg/mL); in assay [1] it was no less than 100 µM.

With `CC[C@H](C)[C@H](NC(=O)[C@H](C)NC(=O)[C@@H](N)C(C)C)C(=O)N[C@@H](C)C(=O)N[C@@H](CC(C)C)C(=O)N[C@@H](CCCCN)C(=O)N[C@@H](C)C(=O)N[C@@H](C)C(=O)N[C@@H](Cc1cnc[nH]1)C(=O)N[C@@H](Cc1ccc(O)cc1)C(=O)N[C@@H](Cc1cnc[nH]1)C(=O)N[C@H](C(=O)N[C@@H](Cc1cnc[nH]1)C(=O)N[C@@H](CCCCN)C(=O)N[C@@H](CCC(=O)O)C(=O)O)[C@@H](C)O` [VAIALKAAHYHTHKE], the MIC is 75.8 µM (≈ 128 µg/mL) in [2]; no less than 50 µM in assay [3]; no less than 100 µM in assay [4]; no less than 100 µM in [5]; 0.592 µM (≈ 1 µg/mL) in assay [6]; no less than 75.8 µM in assay [7].

With `CC[C@H](C)[C@H](NC(=O)CN)C(=O)NCC(=O)NCC(=O)N[C@H](C(=O)N[C@@H](CC(C)C)C(=O)N[C@@H](CC(C)C)C(=O)NCC(=O)N[C@@H](C)C(=O)NCC(=O)N[C@@H](CCCCN)C(=O)N[C@@H](C)C(=O)N[C@H](C(=O)N[C@@H](CC(C)C)C(=O)N[C@@H](CCCCN)C(=O)NCC(=O)N[C@@H](CC(C)C)C(=O)N[C@@H](C)C(=O)N[C@@H](CCCCN)C(=O)N[C@H](C(=O)N[C@@H](CC(C)C)C(=O)N[C@@H](C)C(=O)N[C@@H](CCC(=O)O)C(=O)N[C@@H](CCCCN)C(=O)N[C@@H](Cc1ccc(O)cc1)C(=O)N[C@@H](C)C(=O)N[C@@H](CC(N)=O)C(N)=O)C(C)C)[C@@H](C)O)C(C)C` [GIGGVLLGAGKATLKGLAKVLAEKYAN], the MIC in assay [8] is greater than 38.3 µM; in assay [9], no less than 38.3 µM; in [10], 7.19 µM (≈ 18.8 µg/mL); in [11], no less than 38.3 µM.

For the compound `NC(=O)[C@H](Cc1ccccc1)NC(=O)[C@H](Cc1c[nH]c2ccccc12)NC(=O)[C@H](CCCN=C(N)N)NC(=O)[C@H](Cc1c[nH]c2ccccc12)NC(=O)[C@H](CCCN=C(N)N)NC(=O)[C@H](Cc1c[nH]c2ccccc12)NC(=O)[C@@H](N)CCCN=C(N)N` [RWRWRWF], the MIC in the assay with Staphylococcus aureus was 26.8 µM (≈ 32 µg/mL); in assay [12], 26.8 µM (≈ 32 µg/mL); in assay [13], no less than 53.7 µM; in assay [14] it was 26.8 µM (≈ 32 µg/mL); in [15], 26.8 µM (≈ 32 µg/mL); in assay [16], 26.8 µM (≈ 32 µg/mL). In addition, the MIC in assay [17] was 26.8 µM (≈ 32 µg/mL); in assay [18], 4.74 µM (≈ 5.65 µg/mL).

For `CC(C)C[C@H](NC(=O)[C@H](Cc1ccccc1)NC(=O)[C@H](CCCN=C(N)N)NC(=O)[C@H](CCCCN)NC(=O)[C@@H](N)CC(C)C)C(=O)N[C@@H](CCCCN)C(=O)N[C@@H](Cc1c[nH]c2ccccc12)C(=O)N[C@@H](Cc1ccccc1)C(=O)N[C@@H](CCCCN)C(=O)N[C@@H](CCCN=C(N)N)C(=O)N[C@@H](Cc1ccccc1)C(N)=O` [LKRFLKWFKRF], the MIC is 10.2 µM (≈ 16 µg/mL) in assay [12]; 20.4 µM (≈ 32 µg/mL) in assay [13]; 10.2 µM (≈ 16 µg/mL) in assay [14]; 20.4 µM (≈ 32 µg/mL) in [16]; 8.83 µM (≈ 13.8 µg/mL) against Streptococcus mutans; no less than 40.8 µM in assay [17].

On to `CC[C@H](C)[C@H](NC(=O)[C@H](C)NC(=O)[C@H](CO)NC(=O)[C@@H]1CCCN1C(=O)[C@@H](NC(=O)[C@H](CC(C)C)NC(=O)[C@H](CO)NC(=O)[C@H](Cc1ccccc1)NC(=O)[C@H](CC(C)C)NC(=O)[C@@H](N)Cc1ccccc1)[C@@H](C)CC)C(=O)N[C@@H](CO)C(=O)NCC(=O)N[C@@H](CC(C)C)C(=O)N[C@H](C(=O)N[C@@H](CO)C(=O)N[C@@H](C)C(=O)N[C@@H](Cc1ccccc1)C(=O)N[C@@H](CCCCN)C(N)=O)[C@@H](C)CC` [FLFSLIPSAISGLISAFK], for which the MIC was no less than 42.6 µM in the assay with Micrococcus luteus; 8.37 µM (≈ 16 µg/mL) against Staphylococcus aureus; 25.5 µM (≈ 48.7 µg/mL) in [19]; 25.5 µM (≈ 48.8 µg/mL) with Bacillus subtilis; no less than 42.6 µM in assay [20]; 47.5 µM against Pseudomonas aeruginosa. In addition, in the assay on Escherichia coli, the MIC is 9.47 µM and 9.5 µM.

In turn, `CC[C@H](C)[C@H](NC(=O)[C@H](CC(C)C)NC(=O)[C@H](CC(=O)O)NC(=O)[C@@H](NC(=O)[C@@H](NC(=O)[C@H](Cc1ccccc1)NC(=O)[C@H](CCC(N)=O)NC(=O)[C@@H](N)CCSC)[C@@H](C)CC)[C@@H](C)O)C(=O)NCC(=O)N[C@@H](CCCCN)C(=O)N[C@@H](C)C(=O)N[C@H](C(=O)N[C@@H](CC(=O)O)C(=O)N[C@@H](Cc1ccccc1)C(=O)N[C@@H](Cc1ccccc1)C(=O)N[C@@H](CCCCN)C(=O)NCC(=O)N[C@@H](CC(C)C)C(=O)N[C@@H](Cc1ccccc1)C(=O)N[C@@H](CC(=O)O)C(=O)N[C@@H](CC(N)=O)C(=O)N[C@@H](CCCCN)C(=O)O)C(C)C` [MQFITDLIGKAVDFFKGLFDNK] came in with an MIC in [21] of 19.6 µM (≈ 49.9 µg/mL).

Consider `CC[C@H](C)[C@H](NC(=O)[C@H](CCCCN)NC(=O)[C@@H](NC(=O)[C@@H](NC(=O)[C@H](CCC(N)=O)NC(=O)CNC(=O)[C@H](Cc1cnc[nH]1)NC(=O)[C@H](CCC(N)=O)NC(=O)[C@H](CC(N)=O)NC(=O)[C@H](CCC(N)=O)NC(=O)[C@@H](NC(=O)[C@@H](N)CCCCN)C(C)C)C(C)C)C(C)C)C(=O)N[C@@H](Cc1ccccc1)C(=O)N[C@@H](Cc1cnc[nH]1)C(=O)N[C@@H](Cc1cnc[nH]1)C(=O)O` [KVQNQHGQVVKIFHH], for which the MIC is no less than 3200 µM against Escherichia coli D21; no less than 800 µM in assay [9]; no less than 6000 µM in assay [22]; no less than 800 µM in assay [23]; no less than 6000 µM in assay [24]; no less than 800 µM in [25]. Further, the figures for the MIC (with Bacillus megaterium Bm11; in assay [26]) were no less than 1600 µM and no less than 6000 µM, respectively.

Regarding `CC[C@H](C)[C@H](NC(=O)[C@H](C)NC(=O)[C@H](CO)NC(=O)[C@@H](NC(=O)[C@H](C)NC(=O)[C@H](CC(C)C)NC(=O)[C@@H]1CCCN1C(=O)[C@@H](NC(=O)[C@H](CCSC)NC(=O)CNC(=O)[C@H](CC(C)C)NC(=O)[C@@H](N)CC(C)C)[C@@H](C)CC)[C@@H](C)CC)C(=O)N[C@@H](CO)C(=O)N[C@@H](C)C(=O)N[C@@H](CC(C)C)C(=O)N[C@@H](CO)C(=O)N[C@@H](CCCCN)C(=O)N[C@@H](CC(C)C)C(N)=O` [LLGMIPLAISAISALSKL], the MIC was no less than 128 µM in assay [27]; 17.7 µM (≈ 32 µg/mL) in assay [28]; 4.42 µM (≈ 8 µg/mL) in assay [29]; no less than 100 µM in assay [1]; 8 µM (≈ 14.5 µg/mL) in [10].
